According to patent US12428415B2, “Matriptase 2 inhibitors and uses thereof” (Disc Medicine, Inc., priority 2018, dated 2025):

molecular target: T1, Human Recombinant Matriptase 2 (Homo sapiens, UniProt Q8IU80); experiment: Matriptase 2 fluorescence based inhibition assay, Method A (100 mM TRIS pH 9, 1 mg/mL BSA); assay type: biochemical; conditions: 1 uM; Assay Used A; read-out: Mar-2 % inhibition at 1 uM
T1 construct: purchased Enzo Life Sciences (an in-house preparation was also used) ALX-201-752-1
T1 sequence (Q8IU80 1-811): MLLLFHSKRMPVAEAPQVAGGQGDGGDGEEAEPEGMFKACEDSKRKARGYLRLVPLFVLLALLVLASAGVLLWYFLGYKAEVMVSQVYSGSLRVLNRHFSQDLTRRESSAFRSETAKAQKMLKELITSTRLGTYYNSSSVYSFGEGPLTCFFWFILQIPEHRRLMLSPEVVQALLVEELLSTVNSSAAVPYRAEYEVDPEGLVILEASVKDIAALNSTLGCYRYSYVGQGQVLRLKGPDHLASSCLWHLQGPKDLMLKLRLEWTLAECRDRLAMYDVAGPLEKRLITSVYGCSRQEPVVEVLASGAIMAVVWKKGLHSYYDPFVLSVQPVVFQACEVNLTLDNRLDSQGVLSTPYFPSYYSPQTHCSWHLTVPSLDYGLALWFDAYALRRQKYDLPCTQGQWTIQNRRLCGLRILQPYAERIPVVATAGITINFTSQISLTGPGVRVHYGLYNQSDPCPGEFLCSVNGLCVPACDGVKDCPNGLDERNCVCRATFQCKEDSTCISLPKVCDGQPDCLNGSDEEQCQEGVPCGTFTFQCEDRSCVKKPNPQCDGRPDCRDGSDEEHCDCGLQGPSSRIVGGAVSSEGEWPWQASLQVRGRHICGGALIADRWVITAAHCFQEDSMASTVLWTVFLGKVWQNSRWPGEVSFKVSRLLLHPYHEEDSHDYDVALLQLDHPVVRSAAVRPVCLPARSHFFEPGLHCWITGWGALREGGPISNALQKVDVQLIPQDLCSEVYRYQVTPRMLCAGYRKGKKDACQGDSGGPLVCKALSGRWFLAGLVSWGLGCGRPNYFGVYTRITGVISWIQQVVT
Summary of the method: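 Enzyme (7 nM commercial or 15 nM in-house) preincubated 30 min with compound in 100 mM TRIS pH 9, 1 mg/mL BSA, 1% DMSO at 25° C. Boc-Gln-Ala-Arg-AMC substrate at 100 μM; fluorescence (Ex 360/Em 480 nm) read 60 min later. Screened at 1 and 10 μM; IC50 from variable-slope sigmoidal fit.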

| inhibition at 1 µM | SMILES |
| --- | --- |
| 0 to 25% | N=C(N)c1ccc2cc(C(=O)Nc3cccc(-n4cc(C(F)(F)F)cn4)c3)n(Cc3ccc(C(N)=O)cc3)c2c1 [Compound I-165] |
| 0 to 25% | N=C(N)c1ccc2cc(C(=O)Nc3cccc(-n4ccc(C(F)(F)F)n4)c3)n(Cc3ccc(C(N)=O)cc3)c2c1 [Compound I-166] |
| 25 to 50% | N=C(N)c1ccc2cc(C(=O)NCc3ccncc3)n(Cc3ccc(C(N)=O)cc3)c2c1 [Compound I-168] |
| 0 to 25% | N=C(N)c1ccc2cc(C(=O)Nc3cc(F)ccn3)n(Cc3ccc(C(N)=O)cc3)c2c1 [Compound I-169] |
| 0 to 25% | N=C(N)c1ccc2cc(C(=O)Nc3cccnc3)n(Cc3ccc(C(N)=O)cc3)c2c1 [Compound I-170] |
| 0 to 25% | Cc1ccc(NC(=O)c2cc3ccc(C(=N)N)cc3n2Cc2ccc(C(N)=O)cc2)nc1 [Compound I-171] |
| 0 to 25% | N=C(N)c1ccc2cc(C(=O)Nc3cncc(F)c3)n(Cc3ccc(C(N)=O)cc3)c2c1 [Compound I-172] |
| 0 to 25% | N=C(N)c1ccc2cc(C(=O)Nc3ccc(F)nc3)n(Cc3ccc(C(N)=O)cc3)c2c1 [Compound I-173] |
| 0 to 25% | N=C(N)c1ccc2cc(C(=O)Nc3ccc(Cl)nc3)n(Cc3ccc(C(N)=O)cc3)c2c1 [Compound I-174] |
| 25 to 50% | Cc1cncc(NC(=O)c2cc3ccc(C(=N)N)cc3n2Cc2ccc(C(N)=O)cc2)c1 [Compound I-175] |
| 0 to 25% | Cc1ccnc(NC(=O)c2cc3ccc(C(=N)N)cc3n2Cc2ccc(C(N)=O)cc2)c1 [Compound I-176] |
| 0 to 25% | N=C(N)c1ccc2cc(C(=O)Nc3ccc(N4CCCC4)nc3)n(Cc3ccc(C(N)=O)cc3)c2c1 [Compound I-177] |
| 0 to 25% | N=C(N)c1ccc2cc(C(=O)Nc3ccnc(N4CCCC4)c3)n(Cc3ccc(C(N)=O)cc3)c2c1 [Compound I-178] |
| 0 to 25% | N=C(N)c1ccc2cc(C(=O)Nc3cc(N4CCCC4)ccn3)n(Cc3ccc(C(N)=O)cc3)c2c1 [Compound I-179] |
| 25 to 50% | N=C(N)c1ccc2cc(C(=O)Nc3cccc(N4CCCC4)n3)n(Cc3ccc(C(N)=O)cc3)c2c1 [Compound I-180] |
| 0 to 25% | N=C(N)c1ccc2cc(C(=O)Nc3cccc(-n4cccn4)n3)n(Cc3ccc(C(N)=O)cc3)c2c1 [Compound I-181] |
| 0 to 25% | CCOC(=O)NC(=N)c1ccc2cc(C(=O)Nc3cccc(N4CCCC4)n3)n(Cc3ccc(C(N)=O)cc3)c2c1 [Compound I-183, Ethyl ((1-(4-carbamoylbenzyl)-2-((6-(pyrrolidin-1-yl)pyridin-2-yl)carbamoyl)-1H-indol-6-yl)(imino)methyl)carbamate] |
| 25 to 50% | N=C(N)c1ccc2cc(C(=O)N[C@H]3CC[C@H](N)CC3)n(Cc3ccc(C(N)=O)cc3)c2c1 [Compound I-184] |
| 0 to 25% | CC1CCC(NC(=O)c2cc3ccc(C(=N)N)cc3n2Cc2ccc(C(N)=O)cc2)CC1 (stereo not shown) [Compound I-185] |
| 0 to 25% | C[C@H]1CC[C@H](NC(=O)c2cc3ccc(C(=N)N)cc3n2Cc2ccc(C(N)=O)cc2)CC1 [Compound I-186] |
| 25 to 50% | N=C(N)c1ccc2cc(C(=O)NC3CCC(N4CCCC4)CC3)n(Cc3ccc(C(N)=O)cc3)c2c1 (stereo not shown) [Compound I-188] |
| 0 to 25% | N=C(N)c1ccc2cc(C(=O)N[C@@H]3CC=CCC3)n(Cc3ccc(C(N)=O)cc3)c2c1 [Compound I-189] |
| 0 to 25% | N=C(N)c1ccc2cc(C(=O)NC3CCC(F)(F)CC3)n(Cc3ccc(C(N)=O)cc3)c2c1 [Compound I-190] |
| 0 to 25% | N=C(N)c1ccc2cc(C(=O)NCC3CCCCC3)n(Cc3ccc(C(N)=O)cc3)c2c1 [Compound I-191] |
| 0 to 25% | N=C(N)c1ccc2cc(C(=O)NCC3CCOCC3)n(Cc3ccc(C(N)=O)cc3)c2c1 [Compound I-192] |
| 0 to 25% | C[C@H](NC(=O)c1cc2ccc(C(=N)N)cc2n1Cc1ccc(C(N)=O)cc1)C1CCCCC1 [Compound I-193] |
| 0 to 25% | C[C@@H](NC(=O)c1cc2ccc(C(=N)N)cc2n1Cc1ccc(C(N)=O)cc1)C1CCCCC1 [Compound I-194] |
| 0 to 25% | N=C(N)c1ccc2cc(C(=O)NCCC3CCCCC3)n(Cc3ccc(C(N)=O)cc3)c2c1 [Compound I-195] |
| 0 to 25% | CC(C)N1CC[C@H](NC(=O)c2cc3ccc(C(=N)N)cc3n2Cc2ccc(C(N)=O)cc2)C1 [Compound I-196] |

same assay, conditions: at 1 uM; Assay Used = A; read-out: Mar-2 % inhibition at 1 uM

| inhibition at 1 µM | SMILES |
| --- | --- |
| 0 to 25% | N=C(N)c1ccc2cc(C(=O)NC34CC5CC(CC(O)(C5)C3)C4)n(Cc3ccc(C(N)=O)cc3)c2c1 [Compound I-197] |
| 0 to 25% | N=C(N)c1ccc2cc(C(=O)N[C@]34CC5CC(C[C@@](O)(C5)C3)C4)n(Cc3ccc(C(N)=O)cc3)c2c1 [Compound I-198] |
| 0 to 25% | N=C(N)c1ccc2cc(C(=O)NC34CC5CC(CC(C5)C3)C4)n(Cc3ccc(C(N)=O)cc3)c2c1 [Compound I-200] |
| 0 to 25% | N=C(N)c1ccc2cc(C(=O)NC3Cc4ccccc4C3)n(Cc3ccc(C(N)=O)cc3)c2c1 [Compound I-201] |
| 0 to 25% | N=C(N)c1ccc2cc(C(=O)N[C@H]3CCc4ccccc43)n(Cc3ccc(C(N)=O)cc3)c2c1 [Compound I-202] |
| 0 to 25% | N=C(N)c1ccc2cc(C(=O)N[C@@H]3c4ccccc4C[C@H]3O)n(Cc3ccc(C(N)=O)cc3)c2c1 [Compound I-203] |
| 0 to 25% | N=C(N)c1ccc2cc(C(=O)N[C@H]3c4ccccc4C[C@H]3O)n(Cc3ccc(C(N)=O)cc3)c2c1 [Compound I-204] |
| 25 to 50% | N=C(N)c1ccc2cc(C(=O)N[C@H]3CCNC3)n(Cc3ccc(C(N)=O)cc3)c2c1 [Compound I-205] |
| 25 to 50% | CN1CCC(NC(=O)c2cc3ccc(C(=N)N)cc3n2Cc2ccc(C(N)=O)cc2)CC1 [Compound I-206] |
| 0 to 25% | C[C@@H](O)CNC(=O)c1cc2ccc(C(=N)N)cc2n1Cc1ccc(C(N)=O)cc1 [Compound I-207] |
| 0 to 25% | CC(C)(O)CNC(=O)c1cc2ccc(C(=N)N)cc2n1Cc1ccc(C(N)=O)cc1 [Compound I-208] |
| 0 to 25% | CC[C@@H](CO)NC(=O)c1cc2ccc(C(=N)N)cc2n1Cc1ccc(C(N)=O)cc1 [Compound I-209] |
| 0 to 25% | N=C(N)c1ccc2c(O)c(C(=O)NCC3CCCCC3)n(Cc3ccc(C(N)=O)cc3)c2c1 [Compound I-212, 6-Carbamimidoyl-1-(4-carbamoylbenzyl)-N-(cyclohexylmethyl)-3-hydroxy-1H-indole-2-carboxamide] |
| 0 to 25% | N=C(N)c1ccc2c(Cl)c(C(=O)NCC3CCCCC3)n(Cc3ccc(C(N)=O)cc3)c2c1 [Compound I-213, 6-Carbamimidoyl-1-(4-carbamoylbenzyl)-3-chloro-N-(cyclohexylmethyl)-1H-indole-2-carboxamide] |
| 0 to 25% | CC1CCC(NC(=O)c2c(Cl)c3ccc(C(=N)N)cc3n2Cc2ccc(C(N)=O)cc2)CC1 (stereo not shown) [Compound I-214] |
| 0 to 25% | CNC(=O)c1ccc(Cn2c(C(=O)NCC3CCCCC3)cc3ccc(C(=N)N)cc32)cc1 [Compound I-215, 6-Carbamimidoyl-N-(cyclohexylmethyl)-1-(4-(methylcarbamoyl)benzyl)-1H-indole-2-carboxamide] |
| 0 to 25% | CN(C)C(=O)c1ccc(Cn2c(C(=O)NCC3CCCCC3)cc3ccc(C(=N)N)cc32)cc1 [Compound I-216, 6-Carbamimidoyl-N-(cyclohexylmethyl)-1-(4-(dimethylcarbamoyl)benzyl)-1H-indole-2-carboxamide] |
| 0 to 25% | N=C(N)c1ccc2cc(C(=O)NCC3CCCCC3)n(Cc3ccc(C(=O)NC4CC4)cc3)c2c1 [Compound I-217, 6-Carbamimidoyl-N-(cyclohexylmethyl)-1-(4-(cyclopropylcarbamoyl)benzyl)-1H-indole-2-carboxamide] |
| 0 to 25% | CC1CCC(NC(=O)c2cc3ccc(C(=N)N)cc3n2Cc2ccc(C(=O)N(C)C)cc2)CC1 (stereo not shown) [Compound I-218, 6-Carbamimidoyl-1-(4-(dimethylcarbamoyl)benzyl)-N-(4-methylcyclohexyl)-1H-indole-2-carboxamide] |
| 0 to 25% | CC1CCC(NC(=O)c2cc3ccc(C(=N)N)cc3n2Cc2ccc(C(=O)NC3CC3)cc2)CC1 (stereo not shown) [Compound I-219, 6-Carbamimidoyl-1-(4-(cyclopropylcarbamoyl)benzyl)-N-(4-methylcyclohexyl)-1H-indole-2-carboxamide] |
